Publication PMC12974487, “Inhibition of FicD-mediated AMPylation and deAMPylation by isoprenoid diphosphates” (Proceedings of the National Academy of Sciences of the …, 2026)
Residue numbers refer to the chain shown, from its start. Entries after “also recorded” stand apart in the source; their conditions may differ.

Key:
[1] = molecular target: T1, FicD^R374C (Homo sapiens, UniProt Q9BVA6, R374C); test: DSF with FicD^R374C variant; assay type: binding
T1 construct: Wild-type FicD (residues 105-458) and all mutants were expressed as N-terminal 6xHis-Sumo fusions; 6xHis-Sumo (N, cleaved yes); made in house; host or cells: Rosetta(DE3) E. coli
T1 sequence (Q9BVA6 105-458 R374C): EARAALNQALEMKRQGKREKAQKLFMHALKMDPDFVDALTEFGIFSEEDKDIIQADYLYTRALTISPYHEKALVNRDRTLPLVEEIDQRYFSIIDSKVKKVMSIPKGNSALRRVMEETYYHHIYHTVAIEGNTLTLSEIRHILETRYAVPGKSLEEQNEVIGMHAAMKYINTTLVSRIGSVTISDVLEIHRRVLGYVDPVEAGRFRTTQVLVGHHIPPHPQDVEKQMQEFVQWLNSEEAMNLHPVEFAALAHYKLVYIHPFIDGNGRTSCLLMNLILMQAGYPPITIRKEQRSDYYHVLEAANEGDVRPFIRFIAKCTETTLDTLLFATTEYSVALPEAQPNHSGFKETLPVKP

[2] = molecular target: T1, FicD^R374C; test: AMPylation of Δ26hBiP^T229A by pathogenic variant FicD^R374C; assay type: biochemical; settings: indicated concentrations of FPP
Source text: Fig. 5. Crystal structure of FPP inhibitor bound to FicD active site. […] FPP (cyan stick) and Mg^2+ (cyan sphere) in the pocket of FicD shown as APBS electrostatic surface with positive areas in blue, negative in red, and neutral in white (contour level: ±5 kBT/e) (Right). […] (C–E) AMPylation assays of Δ26hBiP^T229A in the presence of the indicated concentration of FPP using the pathogenic human variants (C) FicD^R371S, (D) FicD^R374H and (E) FicD^R374C. AMPylated BiP and Fic were quantified by immunodetection, and total BiP was quantified by CBB. […]
Isothermal Titration Calorimetry
Proteins were dialyzed against 25mM HEPES pH 7.4/100mM KCl/10% glycerol prior to titration. […]
MgCl2 was added to […]
proteins to a final concentration of 4mM. ITC experiments were performed in a Micro-Cal PEAQ-ITC (Malvern Panalytical, Worcestershire, UK) calorimeter with a stirred 206.2 μL reaction cell held at 20 °C. 250μM FPP was titrated into 25uM Δ104hFicL258D with 750rpm stirring. The first injection was 0.5 μL, followed by twenty 1.9 μL injections. […]
Thermogram and binding figures were plotted in
For AMPylation assays with FicD and BiP, Δ104FicDWT and Δ26hBiPT229A were combined at a ratio of 1:80 in buffer containing 25mM HEPES pH 7.4, 100mM KCl, 5mM MgCl2, 500μM ATP, 1mM DTT, and small molecule where indicated. Assays with Δ104FicDWT were incubated for 1 hour. […]

[3] = molecular target: T2, FicD^R371S (Homo sapiens, UniProt Q9BVA6, R371S); test: DSF with FicD^R371S variant; assay type: binding; settings: addition of 5 mM MgCl2, any concentration tested
T2 construct: Wild-type FicD (residues 105-458) and all mutants were expressed as N-terminal 6xHis-Sumo fusions; 6xHis-Sumo (N, cleaved yes); made in house; host or cells: Rosetta(DE3) E. coli
T2 sequence (Q9BVA6 105-458 R371S): T1 sequence (Q9BVA6 105-458 R374C) with R267S, C270R

## CC(C)=CCC/C(C)=C/CC/C(C)=C/COP(=O)(O)OP(=O)(O)O [FPP, farnesyl-pyrophosphate]
[1]; absence of Mg2+
  binding to R374C variant by DSF (melting curve shift): caused shifts in the melting curves
[1]; addition of Mg2+
  binding to R374C variant by DSF (melting curve shift): enhanced the binding
[2]
  FPP inhibition of FicD^R374C mediated AMPylation: inhibition; also recorded: inhibited
[3]
  binding to FicD^R371S by DSF: did not confer FPP binding
